Entries after “also recorded” stand apart in the source; their conditions may differ.
Legend:
human CTL line ViT2 = assay: Recognition of C7A2-variant peptides by human CTL line ViT2 (51Cr release, C1R.A2.1 targets); assay type: cell-based; conditions: for Recognition by human CTL line (lysis of peptide-sensitized target cells): E/T 5/1, peptide titration
[1] = test system: transgenic AAD mouse CTL lines AAD.10 and AAD.1; assay: Recognition of C7A2-variant peptides by AAD transgenic mouse CTL lines (51Cr release, C1R.AAD targets); assay type: cell-based; conditions: lines AAD.10 and AAD.1, C1R.AAD targets, E/T 10/1
HLA-A2.1 = biological target: T1, HLA-A2.1 (Homo sapiens, UniProt P04439, D140Y/D185E/D98H/E176V/E277Q/G131W/G231S/I119V/I121R/I166T/I218V/L300P/L318F/N151K/N90K/P208A/P217A/Q86G/Q94H/R138H/R169H/T345S); assay: T2 binding assay: peptide stabilisation of cell-surface HLA-A2.1 (flow cytometry, BB7.2); conditions: T2 cells; for FI0.5, the peptide concentration that increases HLA-A2.1 expression by 50% over no peptide control: overnight, with β2-microglobulin
T1 construct: The T2 cell line is deficient in TAP1 and TAP2 transporter proteins and expresses low levels of HLA-A2.1; endogenous in cells; host or cells: T2 cell line (TAP1/TAP2-deficient)
Procedure: FIGS. 1A and 1B. Binding of C7A2 Alanine (A) and non-Alanine (B)-substituted peptides to TAP-deficient HLA-A2.1. T2 cells were incubated overnight in a 96 well plate in CTM with 10 Φg/ml human β2-microglobulin and different peptide concentrations. The next day, cells were washed and HLA-A2.1 expression was assessed by flow cytometry using the anti HLA-A2 BB7.2 monoclonal antibody and FITC labeled goat anti mouse Ig. Results are expressed as fluorescence index (FI), calculated according to the formula: (mean fluorescence with peptide−mean fluorescence without peptide)/mean fluorescence without peptide. Background fluorescence without BB7.2 was subtracted for each individual value. FI0.5 represents those peptide concentrations that increase HLA-A2.1 expression by 50% over the no peptide control and were calculated from the titration curves for each particular peptide.
Peptide binding to HLA molecules was measured using the T2 mutant cell line according to a protocol previously described (53). T2 cells (3×10/well) were incubated overnight in 96-well plates with culture medium (1:1 mixture of RPMI 1640: EHAA containing 2.5% FBS, 100 U/ml penicillin, 100 Φg/ml streptomycin) with 10 Φg/ml β2-microglobulin (Sigma Chemical Co; St. Louis, Mo.) and different peptide concentrations. The next day, cells were washed twice with cold PBS containing 2% FBS and incubated for 30 min at 4 EC with anti HLA-A2.1 BB7.2 monoclonal antibody (1/80 dilution from hybridoma supernatant) and 5 Φg/ml FITC-labeled goat anti mouse Ig (Pharmingen; San Diego, Calif.). Cells were washed twice after each incubation and HLA-A2.1 expression was measured by flow cytometry on a FACScan (Becton Dickinson). HLA-A2.1 expression was quantified as fluorescence index (FI) according to the formula: FI=(mean fluorescence with peptide—mean fluorescence without peptide)/mean fluorescence without peptide. Background fluorescence without BB7.2 antibody was subtracted for each individual value. In order to compare the different peptides, FI0.5, the peptide concentration that increases HLA-A2.1 expression by 50% over no peptide control background, was calculated from the titration curve for each peptide.
The binding affinity of wild-type C7A2 peptide (C7A2-WT) was evaluated with a T2 binding assay (53), which measures the cell surface stabilization of HLA-A2.1 molecules after incubation with peptide. In order to compare the different peptides, a fluorescence index value of 0.5 (FI0.5), the peptide concentration that increases HLA-A2.1 expression by 50%, was chosen as a way to compare titrations of the peptides and relative affinity for MHC molecules. Using this method, FI0.5 of 10 ΦM was calculated for C7A2-WT.

AAD transgenic mice [2] = conditions: 50 nmol, targets with 10 ΦM peptide
Procedure: (§1) FIGS. 8A and 8B. […] AAD (A) and A2Kb (B) transgenic mice were immunized with 50 nmol CTL epitope 8A plus 50 nmol HBVc 128-140 helper epitope in IFA. Two weeks later, mice were boosted under the same conditions and 10-14 days after the boost, spleen cells were removed and stimulated in vitro with 10 ΦM CTL peptide-pulsed spleen cells. After two weeks of in vitro stimulation, a CTL assay was performed with target cells (Con A blasts) incubated with the different peptides at 10 ΦM.
(§2) This peptide is common in viral isolates from HCV genotypes 2a and 2b (56,57).

A2Kb transgenic mice [3] = conditions: 50 nmol, targets with 10 ΦM peptide
Procedure: as §1, §2

AAD transgenic mice [4] = assay: Induction of CTL immune response against C7A2-WT in AAD transgenic mice; assay type: in vivo, mouse; conditions: 50 or 15 nmol CTL epitope; for CTL response to C7A2-WT after immunization: targets pulsed with C7A2-WT
Description: FIGS. 5A and 5B. […] Two weeks later, mice were boosted under the same conditions and 10-14 days after the boost, spleen cells were removed and stimulated in vitro with 10 ΦM CTL peptide-pulsed spleen cells.

A2Kb transgenic mice [5] = assay: Induction of CTL immune response against C7A2-WT in A2Kb transgenic mice; assay type: in vivo, mouse; conditions: 50 nmol, E/T 120:1 for C7A2-WT, 70:1 for 8A
Description: FIG. 6. […] Two weeks later, mice were boosted under the same conditions and 10-14 days after the boost, spleen cells were removed and stimulated in vitro with 10 ΦM CTL peptide-pulsed spleen cells.

[6] = test system: short term CTL lines from AAD transgenic mice; conditions: C1R.AAD targets titrated with C7A2-WT, E:T 10:1
Description: FIG. 7. […] Two weeks later, mice were boosted under the same conditions and 10-14 days after the boost, spleen cells were removed and stimulated in vitro with 10 ΦM CTL peptide-pulsed spleen cells.

AAD transgenic mice [7] = assay: In vivo immunogenicity of C7A2-derived peptides in AAD transgenic mice (CTL assay); set-up: species or system mouse; conditions: 50 nmol CTL epitope plus helper epitope, GM-CSF, IL-12 in IFA; targets pulsed with immunizing peptide

Substance	Recognition by human CTL line (lysis of peptide-sensitized target cells) (human CTL line ViT2)	Recognition by AAD mouse CTL lines (sensitization of target cells) [1]	FI0.5, the peptide concentration that increases HLA-A2.1 expression by 50% over no peptide control (HLA-A2.1)	Cross-recognition of peptide 8V by CTL induced by immunization (AAD transgenic mice [2])	Cross-recognition of peptide 8V by CTL induced by immunization (A2Kb transgenic mice [3])	Titration concentration relative to C7A2-WT (human CTL line ViT2; human CTL line)	Binding to HLA-A2.1 (in words, compared with C7A2-WT) (HLA-A2.1)	CTL response to 8A after immunization (AAD transgenic mice [4]; targets pulsed with 8A)	CTL response to C7A2-WT after immunization (AAD transgenic mice [4])	CTL immune response after immunization (A2Kb transgenic mice [5])	C7A2-WT concentration for comparable killing, CTL raised against 8A versus CTL raised against C7A2-WT [6]	Induction of CTL response by immunization (AAD transgenic mice [7])
8V: C7A2 peptide with position 8 L replaced by V; sequence common in HCV genotypes 2a and 2b (DLMGYIPVV) [Peptide 8V, reference compound]	behaved similarly to C7A2-WT	recognized at higher concentrations than determined for C7A2-WT	15 ΦM									
DLMGYIPAV [Peptide 8A]	higher levels of lysis than C7A2-WT	able to sensitize target cells in a concentration range around that of C7A2-WT	around 2 ΦM	recognize peptide 8V	recognize peptide 8V	10 fold lower concentrations	higher affinity; also recorded: bind at lower concentrations than C7A2-WT	positive responses to 8A itself	strong responses to C7A2-WT	higher level of response	more than 100 fold lower	able to induce clear CTL responses; also recorded: induced higher levels of lysis
DLMGYIPLV [Peptide C7A2-WT, naturally occurring peptide at positions 132-140 in the HCV core polypeptide, reference compound]			10 ΦM						two of the four animals	low response		able to induce clear CTL responses
